Results from ChEMBL document CHEMBL4308864, “Targeting tyrosine kinase: Development of acridone - pyrrole - oxindole hybrids against human breast cancer” (2019).

Experiments:
Type in all cases: functional
[1] = system: MCF7; experiment: Growth inhibition of human MCF7 cells at 10^-5 M incubated for 48 hrs by sulforhodamine B assay relative to control; conditions: MCF7, 48 h, read-out: GI
[2] = system: MDA-MB-468; experiment: Growth inhibition of human MDA-MB-468 cells at 10^-5 M incubated for 48 hrs by sulforhodamine B assay relative to control; conditions: MDA-MB-468, 48 h, read-out: GI
[3] = system: T47D; experiment: Growth inhibition of human T47D cells at 10^-5 M incubated for 48 hrs by sulforhodamine B assay relative to control; conditions: read-out: GI

Structure (SMILES): O=C1/C(=C\c2cccn2Cc2ccccc2)c2ccccc2N1c1c(Cl)cccc1Cl
- inhibition of growth at 10 µM [1]: 93%
- inhibition of growth at 10 µM [2]: 100%
- inhibition of growth at 10 µM [3]: 100%
